Measurements taken from patent publication US20110218360A1, “PREPARATION OF RASAGILINE AND SALTS THEREOF” (DR. REDDY'S LABORATORIES LTD., priority 2008, published 2011).
Counter-ions that a name gives are not always drawn. Like-named read-outs stand apart in the source and are kept apart here.

Assays:
[1] = particle size distribution after micronisation
Excerpt: (§1) The D10, D50, and D90 values are useful for indicating a particle size distribution. D90 refers to 90 volume percent of the particles having a size smaller than the specified value. Likewise D10 refers to 10 volume percent of the particles having a size smaller than the specified value. D50 refers to 50 volume percent of the particles having a size smaller than the specified value. Methods for determining D10, D50 and D90 include laser diffraction, such as using Malvern equipment (from Malvern Instruments Limited, Malvern, Worcestershire, United Kingdom).

[2] = for D10 / D50 / D90: storage at 25±2° C., relative humidity 65±5%; for change of particle size distribution / agglomerate formation on storage: ambient storage, up to 18 days, exposure to atmosphere
Excerpt: as §1
Rasgiline mesylate (6 g) prepared according to Example 28 is divided into three parts for storage under ambient conditions (temperature=25±2° C.; relative humidity=65±5%): unpackaged (P-I); in closed packages with a nitrogen atmosphere (P-II); and in closed packages with an air atmosphere (P-III). The samples are analyzed for particle size distribution on the 5th and 18th days.

D10 [1]	D50 [1]	D90 [1]	D[4,3] [1]	D10 ([2]; 5th day)	D50 ([2]; 5th day)	D90 ([2]; 5th day)	also measured	SMILES
0.779 μm	2.285 μm	5.517 μm						C#CCN[C@@H]1CCc2ccccc21 [Example 27, Rasagiline mesylate]
0.663 μm	1.592 μm	3.219 μm	1.792 μm					C#CCN[C@@H]1CCc2ccccc21 [Example 28, Rasagiline mesylate]
0.761 μm	2.346 μm	4.981 μm	2.650 μm					C#CCN[C@@H]1CCc2ccccc21 [Example 30, Rasagiline mesylate]
2.404 μm	146.957 μm	608.570 μm						C#CCN[C@@H]1CCc2ccccc21 [Example 31, Rasagiline mesylate]
0.991 μm	3.093 μm	6.540 μm	3.496 μm					C#CCN[C@@H]1CCc2ccccc21 [Example 32, Rasagiline mesylate]
				1.319 μm	4.216 μm	151.379 μm		C#CCN[C@@H]1CCc2ccccc21 [P-I, Rasgiline mesylate]
				0.892 μm	2.859 μm	5.524 μm	change of particle size distribution / agglomerate formation on storage [2]: substantially unchanged; D10 ([2]; 18th day): 1.065 μm; D50 ([2]; 18th day): 3.227 μm; D90 ([2]; 18th day): 6.282 μm	C#CCN[C@@H]1CCc2ccccc21 [P-II, Rasgiline mesylate]
				1.182 μm	3.566 μm	120.731 μm	D10 ([2]; 18th day): 1.365 μm; D50 ([2]; 18th day): 4.171 μm; D90 ([2]; 18th day): 144.617 μm	C#CCN[C@@H]1CCc2ccccc21 [P-III, Rasgiline mesylate]
							change of particle size distribution / agglomerate formation on storage ([2]; methanesulfonate): susceptible to agglomerate formation	C#CCN[C@@H]1CCc2ccccc21 [rasagiline mesylate, (1R)—N-prop-2-ynyl-2,3-dihydro-1H-inden-1-amine methanesulfonate, reference compound]
